Test systems include NCI-H522 lung; SF-295 CNS; KM12 colon; CCRF-CEM leukemia; SF-268 CNS; HOP-92 NSCLC; HOP-62 NSCLC; MDA-MB-231 breast; COLO 205 colon; SNB-75 CNS.
Test in all cases: NCI anticancer screen, dose series, 48 h

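Interpolation was linear, between the two tested concentrations surrounding the appropriate level; five concentrations were tested over 48 hours in 96-well plates. Abbreviation: GI50, concentration required for 50% inhibition of growth. TGI denotes the concentration required for complete inhibition of growth.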 Where only a bound is given, the exact number is not on record here.

Turning to `C/C=C(\C)C(=O)NC1=CC[C@@]2(C)C(=CCC3C2CC[C@@]2(C)C3CC[C@@H]2C(C)N(C)C)C1=O` (stereo partly specified), the GI50 is 7.79 µM in the assay with NCI-H522 lung; 2.32 µM in the assay with SF-295 CNS; 2.85 µM in the assay on KM12 colon; 2.58 µM with CCRF-CEM leukemia; 2.14 µM with SF-268 CNS; 1.66 µM in the assay on HOP-92 NSCLC. Moreover, the GI50 is 2.08 µM in the assay with HOP-62 NSCLC, 3.14 µM in the assay with MDA-MB-231 breast, 1.72 µM in the assay on COLO 205 colon and 5.22 µM in the assay with SNB-75 CNS. In addition, the TGI with NCI-H522 lung is 24 µM; with SF-295 CNS, 7.33 µM; with KM12 colon it was 13.7 µM; with CCRF-CEM leukemia it was 15.3 µM; in the assay with SF-268 CNS, 6.93 µM; in the assay with HOP-92 NSCLC, 14.8 µM. The TGI in the assay on HOP-62 NSCLC came to 5.51 µM; in the assay on MDA-MB-231 breast it was 9.99 µM; in the assay with COLO 205 colon, 3.45 µM; with SNB-75 CNS, 28.4 µM.

For the compound `CCN(Cc1ccc(Cl)cc1)c1ccc(CO)c(Cl)c1`, the GI50 was 7.55 µM with NCI-H522 lung; 0.997 µM with SF-295 CNS; 11.8 µM in the assay with KM12 colon; 9.96 µM in the assay on CCRF-CEM leukemia; 13.5 µM with SF-268 CNS; 1.52 µM with HOP-92 NSCLC. Also, the GI50 was 1.24 µM in the assay with HOP-62 NSCLC, 4.95 µM with MDA-MB-231 breast, 2.2 µM with COLO 205 colon and 3.4 µM with SNB-75 CNS. For the same compound, the TGI is 22.6 µM with NCI-H522 lung; 12.1 µM in the assay on SF-295 CNS; 25.6 µM in the assay on KM12 colon; 45.6 µM in the assay with CCRF-CEM leukemia; 29.6 µM in the assay with SF-268 CNS; 11.1 µM in the assay on HOP-92 NSCLC. In addition, the TGI came out at 13.9 µM in the assay with HOP-62 NSCLC, 20.3 µM with MDA-MB-231 breast, 8.57 µM with COLO 205 colon and 17.6 µM in the assay with SNB-75 CNS.

As to `O.O.[NH-]C1(C(=O)O)CCCC1.[NH-]C1(C(=O)O)CCCC1.[Ni+2]`, the TGI with NCI-H522 lung, with SF-295 CNS, with KM12 colon, with CCRF-CEM leukemia, in the assay on SF-268 CNS and in the assay with HOP-92 NSCLC was greater than 100 µM in each case. The TGI with HOP-62 NSCLC, with MDA-MB-231 breast, with COLO 205 colon and in the assay with SNB-75 CNS was greater than 100 µM throughout. Also, in the assay with MDA-MB-231 breast, the GI50 was greater than 100 µM.

On to `CN(Cc1ccccc1)C(=NC#N)N(Cc1ccccc1)Cc1ccccc1`, for which the TGI with NCI-H522 lung is 55.5 µM; in the assay with SF-295 CNS, 47.4 µM; in the assay with KM12 colon, 44.4 µM; with CCRF-CEM leukemia, greater than 100 µM; in the assay on SF-268 CNS it was greater than 100 µM; in the assay on HOP-92 NSCLC, 55.1 µM. Besides, the TGI came out at 84.8 µM with HOP-62 NSCLC, 58.7 µM with MDA-MB-231 breast, 36.2 µM in the assay with COLO 205 colon and 82.2 µM in the assay with SNB-75 CNS.

Regarding `O=c1[nH]c(=O)c2cn[nH]c2[nH]1`, the GI50 in the assay on NCI-H522 lung, with SF-295 CNS, with KM12 colon, with CCRF-CEM leukemia, in the assay on SF-268 CNS and in the assay with HOP-92 NSCLC was greater than 100 µM in each case. Moreover, the GI50 in the assay on HOP-62 NSCLC, in the assay with MDA-MB-231 breast, in the assay with COLO 205 colon and in the assay with SNB-75 CNS was greater than 100 µM throughout. Moreover, the TGI with NCI-H522 lung, in the assay on SF-295 CNS, in the assay on KM12 colon, in the assay on CCRF-CEM leukemia, in the assay with SF-268 CNS and with HOP-92 NSCLC was greater than 100 µM in each case. The TGI in the assay with HOP-62 NSCLC, with MDA-MB-231 breast, in the assay with COLO 205 colon and in the assay on SNB-75 CNS was greater than 100 µM in each case.

Regarding `C=C(C)[C@@H]1CC[C@]2(C)CC[C@]3(C)[C@H](CC[C@@H]4[C@@]5(C)CC[C@H](O)C(C)(C)[C@@H]5CC[C@]43C)[C@@H]12`, the TGI was 55.7 µM with NCI-H522 lung; greater than 82.7 µM in the assay with SF-295 CNS; greater than 100 µM with KM12 colon; 48.9 µM in the assay with CCRF-CEM leukemia; greater than 100 µM in the assay with SF-268 CNS; greater than 100 µM with HOP-92 NSCLC. Also, the TGI in the assay with HOP-62 NSCLC is greater than 100 µM; with MDA-MB-231 breast it was greater than 100 µM; in the assay with COLO 205 colon, greater than 100 µM; in the assay with SNB-75 CNS, greater than 80.1 µM.

Regarding `COC(=O)C1CC23CCCN4CCC5(c6ccccc6N(C=O)C15CC2)C43` (stereo unspecified), the TGI in the assay on NCI-H522 lung, in the assay with SF-295 CNS, with KM12 colon, with CCRF-CEM leukemia, with SF-268 CNS and with HOP-92 NSCLC was greater than 100 µM each time. Besides, the TGI in the assay on HOP-62 NSCLC, in the assay on MDA-MB-231 breast, with COLO 205 colon and with SNB-75 CNS was greater than 100 µM each time.

Regarding `N=C1C(c2nc3ccccc3s2)=C(O)CN1c1ccc(F)c(Cl)c1`, the GI50 in the assay on NCI-H522 lung is 11.5 µM; in the assay with SF-295 CNS it was 18.8 µM; with KM12 colon it was 73.9 µM; in the assay on CCRF-CEM leukemia, 36.8 µM; with SF-268 CNS, 22 µM; in the assay on HOP-92 NSCLC, 12 µM. Also, the GI50 with HOP-62 NSCLC is 18.1 µM; in the assay with MDA-MB-231 breast, 15.9 µM; with COLO 205 colon it was greater than 100 µM; in the assay on SNB-75 CNS, 13 µM. Besides, the TGI in the assay with NCI-H522 lung is 63.2 µM; in the assay with SF-295 CNS, greater than 100 µM; in the assay with KM12 colon, greater than 100 µM; in the assay with CCRF-CEM leukemia, greater than 100 µM; in the assay on SF-268 CNS, greater than 100 µM; with HOP-92 NSCLC, 37.5 µM. In addition, the TGI was 36.2 µM in the assay with HOP-62 NSCLC, 47.3 µM in the assay with MDA-MB-231 breast, greater than 100 µM in the assay with COLO 205 colon and 51.4 µM in the assay with SNB-75 CNS.

As for `N#Cc1ccc(OCc2nc(N)nc(N)c2-c2ccc(Cl)c(Cl)c2)cc1`, the GI50 in the assay with NCI-H522 lung was 2.97 µM; in the assay with SF-295 CNS, 0.725 µM; in the assay with KM12 colon, 2.85 µM; in the assay on CCRF-CEM leukemia, 2.67 µM; in the assay with SF-268 CNS it was 2.76 µM; in the assay with HOP-92 NSCLC it was 4.6 µM. The GI50 in the assay on HOP-62 NSCLC was 5.21 µM; with MDA-MB-231 breast it was 4.4 µM; with COLO 205 colon it was 4.02 µM; with SNB-75 CNS it was 2.74 µM. Moreover, the TGI is 19.9 µM with NCI-H522 lung; greater than 100 µM in the assay with SF-295 CNS; 84.5 µM with KM12 colon; greater than 100 µM in the assay with CCRF-CEM leukemia; greater than 100 µM with SF-268 CNS; greater than 100 µM with HOP-92 NSCLC. Moreover, the TGI is greater than 100 µM with HOP-62 NSCLC, greater than 100 µM with MDA-MB-231 breast, greater than 100 µM with COLO 205 colon and 29.1 µM with SNB-75 CNS.

The record behind these values is PubChem BioAssay (NCI).
